The values below come from patent US6977254B2, “Hydroxy cyclohexenyl phenyl carboxamides tocolytic oxytocin receptor antagonists” (Wyeth, priority 2001, dated 2005).

The target of this assay is T1, human oxytocin receptor (Homo sapiens, UniProt P30559).
T1 construct: host or cells: CHO cells, stably transfected (pcDNA3.1 vector); membranes
T1 sequence (P30559 1-389): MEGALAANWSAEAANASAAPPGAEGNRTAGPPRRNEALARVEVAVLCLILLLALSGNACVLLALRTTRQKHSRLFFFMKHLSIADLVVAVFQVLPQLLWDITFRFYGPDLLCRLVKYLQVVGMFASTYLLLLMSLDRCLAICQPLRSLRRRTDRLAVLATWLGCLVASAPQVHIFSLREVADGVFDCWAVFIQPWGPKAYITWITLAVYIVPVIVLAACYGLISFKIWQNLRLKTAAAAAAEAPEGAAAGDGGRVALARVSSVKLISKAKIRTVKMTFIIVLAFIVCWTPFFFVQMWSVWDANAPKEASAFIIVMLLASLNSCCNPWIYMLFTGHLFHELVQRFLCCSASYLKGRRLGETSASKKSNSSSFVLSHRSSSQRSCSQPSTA
In words: Oxytocin binding in CHO cell membranes expressing human oxytocin receptors ([3H]oxytocin radioligand). The note with it: for inhibition at 0.1 µM: read-out: OT % inhibition @ 100 nM; for pIC50: value in parentheses, read-out: OT (IC50). An excerpt: Oxytocin binding in Chinese Hamster Ovary cell membranes expressing human oxytocin receptors
Chinese Hamster Ovary (CHO) cells stably transfected with the human oxytocin (cf. T. Kimura et al., U.S. Pat. No. 5,466,584 (1995) to Rohto Pharmaceutical Co. Ltd., Osaka, Japan) were obtained from Dr. M. Thibonnier, Case Western Reserve University School of Medicine, Cleveland, Ohio.
A. Passaging and Amplification of Cells:
CHO cells transfected with the human oxytocin receptors obtained from M. Thibonnier (pcDNA3.1 vector) are allowed to grow to confluency (approx. >90%) in T-150 flasks under sterile conditions, in a cell culture medium of F-12 Nutrient Mixture (HAM) with L-glutamine (Gibco Cat. #11765-054) containing 15 mM HEPES (Gibco Cat. #15630-080), 1% antibiotic/antimycotic (add 5 mL 100×, Gibco Cat. #15240-062 per 500 mL F-12), 400 μg/mL of Geneticin (add 4 mL of 50 mg/mL per 500 mL F-12) and 10% Fetal Bovine Serum (Qualified, heat inactivated, Gibco Cat. #16140-063). The medium is removed by aspiration and the cells are washed with 10 mL of Hank's Balanced Salt solution (Gibco Cat. #14175-095). The salt solution is removed by aspiration and the cells trypsinized with 5 mL of trypsin-EDTA (0.05% trypsin, 0.53 mM EDTA-4Na, Gibco Cat. #25300-070) for 1 min The trypsin is removed by aspiration and the cells dislodged by tapping. Cell Culture medium (e.g. 30 mL for 1:30 split) is immediately added and mixed well to inactivate trypsin. 1 mL of detached cells is added to new culture flasks containing fresh Cell Culture medium (e.g. into 25 mL per T-150 flask), and mixed gently. The cells are incubated at 37° C. in 5% CO2. The medium is changed at 3 to 4 days interval (or as appropriate). The cells grow to confluency (approx. >75%-95%) within 7-8 days. All steps are done under sterile conditions.
The cells are washed twice gently with Hank's Balanced Salt solution (eg, use 10 mL per T-150 flask). The excess is removed and the cells bathed for 15-30 min. in an enzyme-free Cell Dissociation Buffer (eg, use 8 mL Hank's Based, Gibco Cat. #13150-016 per T-150 flask) until cells are loosened. The contents are transferred to centrifuge tubes (50 mL size) kept in ice bath. All subsequent steps are done at 4° C. The tubes are centrifuged at 300×g for 15 min (1380 rpm on SORVAL, Model RT6000D, using rotor for 50 mL tubes). The supernatant is discarded and the cells suspended in homogenizing buffer (10 mM Tris-HCl containing 0.25 M sucrose and 1 mM EDTA, pH 7.4) ensuring that the volume of the buffer is about ten times the volume of the cell pellet. The cells are pooled into a centrifuge tube (50 mL) and homogenized with Polytron at setting 6 for 10 sec. The homogenate is transferred into a Potter-Elvjehm homogenizer and homogenized with 3 strokes. The homogenate is centrifuged at 1500×g for 10 min at 4° C. (3100 rpm using SORVAL, model RT6000D, using rotor for 50 mL tubes). The pellet is discarded. The supernatant is centrifuged at 100,000×g for 60 min. at 4° C. (Beckman L8-80M ultracentrifuge; spin at 37,500 rpm with rotor type 70 Ti for 50 mL tubes; 38,000 rpm with type 80Ti for 15 mL tubes; or 35,800 rpm with rotor type 45Ti). The supernantant is discarded and the pellet suspended in 3 to 4 mL of Tris buffer (50 mM TRIS-HCl, pH 7.4). The protein content is estimated by the Bradford or Lowry method. The volume of the membrane suspension is adjusted with the membrane buffer (50 mM Tris-HCl containing 0.1% BSA and 0.1 mM PMSF) to give 3.0 mg/mL (or as appropriate) of protein. The membranes are aliquoted and stored at −70° C.
C. Radioligand Binding Assay:
In wells of a 96-well format microtiter plate, is added 90, 110 or 130 μL (to make up a final volume of 200 μL) of assay buffer containing 50 mM of Tris-HCl (pH 7.4), […], 1 mg % aprotinin, 1 mg % leupeptin, 2 mg % 1,10-phenanthroline, 10 mg % trypsin inhibitor, and 0.1 mM PMSF. The inhibitors are added on the day of the experiment. […]

Setting [1] is: 100 nM, value without parentheses.

pIC50: −log10 of the molar value.

Usually inhibition stands for the relative decrease from the control value, in per cent. As to `Cc1cc(C(=O)N2Cc3ccc(C(=O)N(C)C[C@@H]4OC(=O)O[C@H]4[C@H](O)[C@H]4COC(=O)O4)n3Cc3ccccc32)ccc1C1=CCCCC1` [Example 7, 10-(4-Cyclohex-1-en-1-yl-3-methylbenzoyl)-N-[((4S,5S)-5-{(R)-hydroxy[(4R)-2-oxo-1,3-dioxolan-4-yl]methyl}-2-oxo-1,3-dioxolan-4-yl)methyl]-N-methyl-10,11-dihydro-5H-pyrrolo[2,1-c][1,4]benzodiazepine-3-carboxamide], under setting [1], the inhibition at 0.1 µM amounted to 99%. Regarding `Cc1cc(C(=O)N2Cc3ccc(C(=O)N4CCN(CCO)CC4)n3Cc3ccccc32)ccc1C1=CCCCC1` [Example 17, {10-[4-(1-Cyclohex-1-en-1-yl)-3-methylbenzoyl]-10,11-dihydro-5H-pyrrolo[2,1-c][1,4]benzodiazepin-3-yl}[4-(2-hydroxyethyl)-1-piperazinyl]methanone], the “OT % inhibition @ 100 nM” value under setting [1] is given as 88%.

A word on the pIC50: it is the negative decadic logarithm of the IC50, by convention in mol/L. For the molecule `COc1cc(C2=CCCCC2)c(Cl)cc1C(=O)N1Cc2ccc(C(=O)N(C)CC(O)CO)n2Cc2ccccc21` (centres unmarked) [Example 4, 10-(5-Chloro-4-cyclohex-1-en-1-yl-2-methoxybenzoyl)-N-(2,3-dihydroxypropyl)-N-methyl-10,11-dihydro-5H-pyrrolo[2,1-c][1,4]benzodiazepine-3-carboxamide], the pIC50 was 8.68. On the same count and under the same terms, in the case of `Cc1cc(C(=O)N2Cc3ccc(C(=O)N(C)C[C@H](O)[C@@H](O)[C@H](O)[C@H](O)CO)n3Cc3ccccc32)ccc1C1=CCCCC1` [Example 5] it was 8.67. As to `CCOC(=O)[C@H](Cc1ccc(O)cc1)NC(=O)c1ccc2n1Cc1ccccc1N(C(=O)c1ccc(C3=CCCCC3)c(C)c1)C2` [Example 9, (2S)-2-{[10-(4-Cyclohex-1-en-1-yl-3-methyl-benzoyl)-10,11-dihydro-5H-pyrrolo[2,1-c][1,4]benzodiazepine-3-carbonyl]-amino}-3-(4-hydroxy-phenyl)-propionic acid ethyl ester], the inhibition at 0.1 µM under setting [1] was 23%.
